Here are results for 1 molecule from EP0643699B1, “6-(2-HYDROXYETHYLAMINOALKYL)-5,11-DIOXO-5,6-DIHYDRO-11H- INDENO[1,2-C]ISOQUINOLINES AND THEIR USE AS ANTINEOPLASTIC AGENTS” (priority 1991, dated 1993).

The subject of this test is L1210. Put plainly: Optimal dose (ED 95) in L1210 leukemia bearing mice. Conditions: L1210 bearing mice DBA2. In kind it is in vivo. The text has this:
The antineoplastic activity of the compounds of the invention has been investigated testing the compounds of the chemical group "in vivo" against experimental rodent tumors such as the solid form of Ehrlich tumour (STE, originally mammary adenocarcinoma), tumor HK (also transplantable originally mammary adenocarcinoma), Krebs' ascites tumour (Kr2), S37 ascites sarcoma, Nemeth-Keller lymphoma (NK), all maintained in mice H, Gardner lymphosarcoma (LsG, maintained in mice C3H), P388 and/or L1210 leukemia (maintained in DBA2 mice), B16 metastasizing melanocarcinoma (maintained in C57B1/6 mice) and Yoshida ascites reticulosarcoma (Y, maintained in Wistar rats) in experiments according to Jelinek, V. [Neoplasma 12, 469 (1965); ibid 7, 146 (1960)] and in "in vitro" experiments using radioactive precursors of nucleic acids and proteins according to Miko, M. et al. [Cancer Res 39, 4242 (1979); Neoplasma 26, 449 (1979); ibid 16, 161 (1969)] with minor modifications [Mattern, J.: Studies on the Drug Sensitivity of Short Term Cultured Tumour Cell Suspensions. In "Human Tumours in Short Term Culture" (Dendy, P.P. ed.), p.301, Academic Press 1976]. The Cox's proportional-hazards model was used for survival evaluation and optimal dose calculation according to Carter, V.H. et al. [cf Cancer Res. 42, 2963 (1982)]. […]

Where two headings read alike, the source gives them in different places.

For the molecule `O=C1c2ccccc2-c2c1c1ccccc1c(=O)n2CCNCCO` [I (X=2), 6-[2-(2-hydroxyethyl)aminoethyl]-5,11-dioxo-5,6-dihydro-11H-indeno[1,2-c]isoquinoline], the ED95 is, setting by setting: (Mus musculus, po, read-out: ED 95) 225 mg/kg; (p.o., dose per body surface) 675 mg/m^2.
